Data on 1 compound can be found in PMC5218480 (PLoS ONE, 2017).

This assay deals with MV-4-11 cells. Nature of the assay: Gene expression microarray analysis (Affymetrix PrimeView) and GSEA. The conditions noted are these: MV-4-11 cells, 48 hours. Also on record: RFU PODN (11730768_x_at) / Fold change /veh PODN (11730768_x_at) / RFU LINC00158 (11744669_a_at) / Fold change /veh LINC00158 (11744669_a_at) / RFU DUSP10 (11751237_a_at) / Fold change /veh DUSP10 (11751237_a_at) / RFU ID3 (11757404_x_at) / Fold change /veh ID3 (11757404_x_at) / RFU PLEKHG5 (11737974_s_at) / Fold change /veh PLEKHG5 (11737974_s_at) / RFU LRRC4B (11730491_at) / Fold change /veh LRRC4B (11730491_at) / RFU GIMAP4 (11747438_a_at) / Fold change /veh GIMAP4 (11747438_a_at) / RFU KRT8 (11758183_x_at) / Fold change /veh KRT8 (11758183_x_at) / RFU CNN1 (11734310_a_at) / Fold change /veh CNN1 (11734310_a_at) / RFU VPS37D (11726825_at) / Fold change /veh VPS37D (11726825_at) / RFU C10orf10 (11716522_x_at) / Fold change /veh C10orf10 (11716522_x_at) / RFU KIR2DL2 /// KIR2DL4 /// KIR2DL5A /// KIR2DL5B /// KIR2DS1 /// KIR2DS2 /// KIR2DS3 /// KIR2DS4 /// KIR3DL3 /// KIR3DL3 /// KIR3DS1 (11738374_at) / Fold change /veh KIR2DL2 /// KIR2DL4 /// KIR2DL5A /// KIR2DL5B /// KIR2DS1 /// KIR2DS2 /// KIR2DS3 /// KIR2DS4 /// KIR3DL3 /// KIR3DL3 /// KIR3DS1 (11738374_at) / RFU C1QL1 (11718748_at) / Fold change /veh C1QL1 (11718748_at) / RFU TMPRSS4 (11747572_a_at) / Fold change /veh TMPRSS4 (11747572_a_at) / RFU HAMP (11756126_x_at) / Fold change /veh HAMP (11756126_x_at) / RFU RNFT2 (11725882_a_at) / Fold change /veh RNFT2 (11725882_a_at) / RFU NR4A2 (11747474_a_at) / Fold change /veh NR4A2 (11747474_a_at) / RFU ABCC12 (11746883_a_at) / Fold change /veh ABCC12 (11746883_a_at) / RFU TMEM136 (11760407_x_at) / Fold change /veh TMEM136 (11760407_x_at) / RFU CLDN22 /// WWC2 (11732394_at) / Fold change /veh CLDN22 /// WWC2 (11732394_at) / RFU HLA-DPB1 (11760878_x_at) / Fold change /veh HLA-DPB1 (11760878_x_at) / RFU SPINT1 (11716480_a_at) / Fold change /veh SPINT1 (11716480_a_at) / RFU GAP43 (11754022_s_at) / Fold change /veh GAP43 (11754022_s_at) / RFU A4GNT (11735810_at) / Fold change /veh A4GNT (11735810_at) / RFU PRB3 (11715151_x_at) / Fold change /veh PRB3 (11715151_x_at) / RFU TUBB4B (11761932_at) / Fold change /veh TUBB4B (11761932_at) / RFU CAPN14 (11732068_a_at) / Fold change /veh CAPN14 (11732068_a_at) / RFU TMCC2 (11721928_a_at) / Fold change /veh TMCC2 (11721928_a_at) / RFU IRGQ (11745062_a_at) / Fold change /veh IRGQ (11745062_a_at) / RFU FAM174B (11720279_a_at) / Fold change /veh FAM174B (11720279_a_at) / RFU TMPRSS4 (11748680_a_at) / Fold change /veh TMPRSS4 (11748680_a_at) / RFU FAM212B (11763350_a_at) / Fold change /veh FAM212B (11763350_a_at) / RFU PLEKHG5 (11743358_a_at) / Fold change /veh PLEKHG5 (11743358_a_at) / RFU ZSCAN30 (11745921_a_at) / Fold change /veh ZSCAN30 (11745921_a_at) / RFU CMKLR1 (11741424_a_at) / Fold change /veh CMKLR1 (11741424_a_at) / RFU LOC101060620 /// MAPK8IP1 (11723275_at) / Fold change /veh LOC101060620 /// MAPK8IP1 (11723275_at) / RFU SPTSSB (11747773_x_at) / Fold change /veh SPTSSB (11747773_x_at) / RFU PRSS12 (11739890_at) / Fold change /veh PRSS12 (11739890_at) / RFU BIN1 (11741810_x_at) / Fold change /veh BIN1 (11741810_x_at) / RFU WNT11 (11732464_a_at) / Fold change /veh WNT11 (11732464_a_at) / RFU C10orf10 (11716521_a_at) / Fold change /veh C10orf10 (11716521_a_at) / RFU C5orf56 (11738089_at) / Fold change /veh C5orf56 (11738089_at) / RFU CYB561 (11721691_x_at) / Fold change /veh CYB561 (11721691_x_at) / RFU ANKRD19P (11752326_a_at) / Fold change /veh ANKRD19P (11752326_a_at) / RFU OR2T12 /// OR2T33 /// OR2T8 (11738714_s_at) / Fold change /veh OR2T12 /// OR2T33 /// OR2T8 (11738714_s_at) / RFU VCAN (11748164_a_at) / Fold change /veh VCAN (11748164_a_at) / RFU JSRP1 (11732532_at) / Fold change /veh JSRP1 (11732532_at) / RFU KRTAP10-11 (11738290_x_at) / Fold change /veh KRTAP10-11 (11738290_x_at) / RFU MYO3A (11730013_a_at) / Fold change /veh MYO3A (11730013_a_at) / RFU EBF3 (11725865_a_at) / Fold change /veh EBF3 (11725865_a_at) / RFU CAMK2N1 (11719241_x_at) / Fold change /veh CAMK2N1 (11719241_x_at) / RFU C5orf56 (11738088_a_at) / Fold change /veh C5orf56 (11738088_a_at) / RFU OLFML3 (11715873_a_at) / Fold change /veh OLFML3 (11715873_a_at) / RFU LOC100653217 /// NTM (11731650_a_at) / Fold change /veh LOC100653217 /// NTM (11731650_a_at) / RFU MAPK11 (11762145_a_at) / Fold change /veh MAPK11 (11762145_a_at) / RFU FIZ1 (11724087_x_at) / Fold change /veh FIZ1 (11724087_x_at) / RFU OASL (11726364_x_at) / Fold change /veh OASL (11726364_x_at) / RFU SOX15 (11748057_x_at) / Fold change /veh SOX15 (11748057_x_at) / RFU CD79A (11719716_a_at) / Fold change /veh CD79A (11719716_a_at) / RFU HIST1H1D (11736915_at) / Fold change /veh HIST1H1D (11736915_at) / RFU CASKIN2 (11723855_a_at) / Fold change /veh CASKIN2 (11723855_a_at) / RFU LOC730098 (11760151_x_at) / Fold change /veh LOC730098 (11760151_x_at) / RFU OR4N2 (11742367_at) / Fold change /veh OR4N2 (11742367_at) / RFU PRRT2 (11749266_a_at) / Fold change /veh PRRT2 (11749266_a_at) / RFU SNX32 (11753110_a_at) / Fold change /veh SNX32 (11753110_a_at) / RFU CDHR5 (11726645_a_at) / Fold change /veh CDHR5 (11726645_a_at) / RFU RCAN1 (11760418_a_at) / Fold change /veh RCAN1 (11760418_a_at) / RFU FAM167A (11723789_a_at) / Fold change /veh FAM167A (11723789_a_at) / RFU FAM26E (11764081_at) / Fold change /veh FAM26E (11764081_at) / RFU ISYNA1 (11749810_s_at) / Fold change /veh ISYNA1 (11749810_s_at) / RFU ACY1 (11761880_at) / Fold change /veh ACY1 (11761880_at) / RFU 11764098_at / Fold change /veh 11764098_at / RFU SAMD14 (11745864_x_at) / Fold change /veh SAMD14 (11745864_x_at) / RFU NPB (11741838_a_at) / Fold change /veh NPB (11741838_a_at) / RFU TMPRSS6 (11731388_a_at) / Fold change /veh TMPRSS6 (11731388_a_at) / RFU KRTAP10-2 (11738614_at) / Fold change /veh KRTAP10-2 (11738614_at) / RFU ARHGAP8 /// PRR5-ARHGAP8 (11727945_x_at) / Fold change /veh ARHGAP8 /// PRR5-ARHGAP8 (11727945_x_at) / RFU KRTAP5-7 /// NADSYN1 (11734609_at) / Fold change /veh KRTAP5-7 /// NADSYN1 (11734609_at) / RFU RASL12 (11751679_a_at) / Fold change /veh RASL12 (11751679_a_at) / RFU CDKN2B (11736163_a_at) / Fold change /veh CDKN2B (11736163_a_at) / RFU PRF1 (11729649_at) / Fold change /veh PRF1 (11729649_at) / RFU, ZNF638 /// ZNF638-IT1 / Fold change vs veh, ZNF638 /// ZNF638-IT1 / RFU, PANK3 / Fold change vs veh, PANK3 / RFU, SH3YL1 / Fold change vs veh, SH3YL1 / RFU, ZEB2 / Fold change vs veh, ZEB2 / RFU, NRIP1 / Fold change vs veh, NRIP1 / RFU, PTTG1IP / Fold change vs veh, PTTG1IP / RFU, CAPN2 / Fold change vs veh, CAPN2 / RFU, MED14 / Fold change vs veh, MED14 / RFU, SNORA58 / Fold change vs veh, SNORA58 / RFU, C1orf63 / Fold change vs veh, C1orf63 / RFU, LRRFIP1 / Fold change vs veh, LRRFIP1 / RFU, NDUFAF7 / Fold change vs veh, NDUFAF7 / RFU, SLC12A2 / Fold change vs veh, SLC12A2 / RFU, IBTK / Fold change vs veh, IBTK / RFU, ESF1 / Fold change vs veh, ESF1 / Fold change vs veh, TMEM50B / RFU, TAOK1 / Fold change vs veh, TAOK1 / RFU, ACBD3 / Fold change vs veh, ACBD3 / RFU, TMA16 / Fold change vs veh, TMA16 / RFU, RWDD3 / Fold change vs veh, RWDD3 / RFU, BCAT1 / Fold change vs veh, BCAT1 / RFU, EDEM3 / Fold change vs veh, EDEM3 / RFU, TMEM33 / Fold change vs veh, TMEM33 / RFU, WDR75 / Fold change vs veh, WDR75 / RFU, AHCTF1 / Fold change vs veh, AHCTF1 / RFU, TFRC / Fold change vs veh, TFRC / RFU, ZDHHC17 / Fold change vs veh, ZDHHC17 / RFU, NOM1 / Fold change vs veh, NOM1 / RFU, ARL8B / Fold change vs veh, ARL8B / RFU, ZBTB11 / Fold change vs veh, ZBTB11 / RFU, TAMM41 / Fold change vs veh, TAMM41 / RFU, KIAA1704 /// LOC100996395 / Fold change vs veh, KIAA1704 /// LOC100996395 / RFU, ING1 / Fold change vs veh, ING1 / RFU, TRMT61B / Fold change vs veh, TRMT61B / RFU, FUBP3 / Fold change vs veh, FUBP3 / RFU, TP53 / Fold change vs veh, TP53 / RFU, TNKS2 / Fold change vs veh, TNKS2 / RFU, ZFP14 / Fold change vs veh, ZFP14 / RFU, ACTR2 / Fold change vs veh, ACTR2 / RFU, PPP3R1 / Fold change vs veh, PPP3R1 / RFU, PIK3R1 / Fold change vs veh, PIK3R1 / RFU, HNRNPA1 / Fold change vs veh, HNRNPA1 / RFU, RNF170 / Fold change vs veh, RNF170 / RFU, ZNF28 / Fold change vs veh, ZNF28 / RFU, RNGTT / Fold change vs veh, RNGTT / RFU, OGT / Fold change vs veh, OGT / RFU, BRD1 / Fold change vs veh, BRD1 / RFU, MARS / Fold change vs veh, MARS / RFU, ZNF655 / Fold change vs veh, ZNF655 / RFU, FAHD1 / Fold change vs veh, FAHD1 / RFU, BDP1 / Fold change vs veh, BDP1 / RFU, LRRCC1 / Fold change vs veh, LRRCC1 / RFU, ARID1A / Fold change vs veh, ARID1A / RFU, ZNF146 / Fold change vs veh, ZNF146 / RFU, ZNF330 / Fold change vs veh, ZNF330 / RFU, GPN3 / Fold change vs veh, GPN3 / RFU, C9orf123 / Fold change vs veh, C9orf123 / RFU, N4BP2L2 / Fold change vs veh, N4BP2L2 / RFU, ARFIP1 / Fold change vs veh, ARFIP1 / RFU, FAM179B / Fold change vs veh, FAM179B / RFU, BCL10 / Fold change vs veh, BCL10 / RFU, UHRF1BP1L / Fold change vs veh, UHRF1BP1L / RFU, BET1 / Fold change vs veh, BET1 / RFU, CNOT2 / Fold change vs veh, CNOT2 / RFU, ZNF268 / Fold change vs veh, ZNF268 / Fold change vs veh, ZNF507 / RFU, DGCR2 / Fold change vs veh, DGCR2 / RFU, WDSUB1 / Fold change vs veh, WDSUB1 / Fold change vs veh, HSP90B1 /// MIR3652 / RFU, ADSS / Fold change vs veh, ADSS / RFU, GK / Fold change vs veh, GK / RFU, ZNF148 / Fold change vs veh, ZNF148 / RFU, TAF9 / Fold change vs veh, TAF9 / RFU, SLC1A5 / Fold change vs veh, SLC1A5 / RFU, SLMO2 / Fold change vs veh, SLMO2 / RFU, ABCC4 / Fold change vs veh, ABCC4 / RFU, LOC101060439 /// RAP1B / Fold change vs veh, LOC101060439 /// RAP1B / RFU, RFX7 / Fold change vs veh, RFX7 / RFU, GTPBP10 / Fold change vs veh, GTPBP10 / RFU, CNEP1R1 / Fold change vs veh, CNEP1R1 / RFU, BIVM-ERCC5 /// ERCC5 / Fold change vs veh, BIVM-ERCC5 /// ERCC5 / RFU, ILF3 / Fold change vs veh, ILF3 / RFU 11762660_at / Fold change /veh 11762660_at / RFU VCAN (11757783_s_at) / Fold change /veh VCAN (11757783_s_at) / RFU DDX43 (11728927_at) / Fold change /veh DDX43 (11728927_at) / RFU KRT8 (11758188_x_at) / Fold change /veh KRT8 (11758188_x_at) / RFU NKD1 (11759106_at) / Fold change /veh NKD1 (11759106_at) / RFU SRD5A1 (11742802_a_at) / Fold change /veh SRD5A1 (11742802_a_at) / RFU TPSAB1 /// TPSB2 (11721975_s_at) / Fold change /veh TPSAB1 /// TPSB2 (11721975_s_at) / RFU GSTM3 (11746129_a_at) / Fold change /veh GSTM3 (11746129_a_at) / RFU IL23R (11737362_x_at) / Fold change /veh IL23R (11737362_x_at) / RFU TMEM51 (11727254_a_at) / Fold change /veh TMEM51 (11727254_a_at) / RFU PIWIL2 (11732686_x_at) / Fold change /veh PIWIL2 (11732686_x_at) / RFU ORM1 (11744905_x_at) / Fold change /veh ORM1 (11744905_x_at) / RFU CCDC152 (11743942_at) / Fold change /veh CCDC152 (11743942_at) / RFU ECM1 (11717891_a_at) / Fold change /veh ECM1 (11717891_a_at) / RFU IL23R (11748794_a_at) / Fold change /veh IL23R (11748794_a_at) / RFU TNFAIP8L3 (11732012_x_at) / Fold change /veh TNFAIP8L3 (11732012_x_at) / RFU MBOAT4 (11741988_at) / Fold change /veh MBOAT4 (11741988_at) / RFU 11764193_at / Fold change /veh 11764193_at / RFU TMEM53 (11763286_at) / Fold change /veh TMEM53 (11763286_at) / RFU MAGEB2 (11727129_at) / Fold change /veh MAGEB2 (11727129_at) / RFU TMEM200A (11744735_a_at) / Fold change /veh TMEM200A (11744735_a_at) / RFU CCDC152 (11751479_a_at) / Fold change /veh CCDC152 (11751479_a_at) / RFU FAM211A (11726209_a_at) / Fold change /veh FAM211A (11726209_a_at) / RFU RGS16 (11746705_a_at) / Fold change /veh RGS16 (11746705_a_at) / RFU VCAN (11755009_s_at) / Fold change /veh VCAN (11755009_s_at) / RFU RHOB (11743442_s_at) / Fold change /veh RHOB (11743442_s_at) / RFU RGS16 (11720943_a_at) / Fold change /veh RGS16 (11720943_a_at) / RFU RGS16 (11720944_at) / Fold change /veh RGS16 (11720944_at) / RFU, VPS4B / Fold change vs veh, VPS4B / RFU, CREB1 / Fold change vs veh, CREB1 / RFU, DNAJC13 / Fold change vs veh, DNAJC13 / RFU, GNAQ / Fold change vs veh, GNAQ / RFU, CDK5R1 / Fold change vs veh, CDK5R1 / RFU, ZRANB3 / Fold change vs veh, ZRANB3 / RFU, CUL4A / Fold change vs veh, CUL4A / RFU, CCNY / Fold change vs veh, CCNY / RFU, UFL1 / Fold change vs veh, UFL1 / RFU, COG3 / Fold change vs veh, COG3 / RFU, DIAPH2 / Fold change vs veh, DIAPH2 / RFU, SKA2 / Fold change vs veh, SKA2 / RFU, AFF3 / Fold change vs veh, AFF3 / RFU, LMF1 / Fold change vs veh, LMF1 / RFU, IPO11 / Fold change vs veh, IPO11 / RFU, DFFB / Fold change vs veh, DFFB / RFU, FOXP1 / Fold change vs veh, FOXP1 / RFU, CARD8 / Fold change vs veh, CARD8 / RFU, STRN3 / Fold change vs veh, STRN3 / RFU, ADK / Fold change vs veh, ADK / RFU, RASSF2 / Fold change vs veh, RASSF2 / RFU, WIPF1 / Fold change vs veh, WIPF1 / RFU, LARP1B / Fold change vs veh, LARP1B / RFU, RASA1 / Fold change vs veh, RASA1 / RFU, RB1 / Fold change vs veh, RB1 / RFU, PPFIA1 / Fold change vs veh, PPFIA1 / RFU, MAT2A / Fold change vs veh, MAT2A / RFU, CCT5 / Fold change vs veh, CCT5 / RFU, WDR92 / Fold change vs veh, WDR92 / RFU, CUX1 / Fold change vs veh, CUX1 / RFU, TTC7A / Fold change vs veh, TTC7A / RFU, TMEM135 / Fold change vs veh, TMEM135 / RFU, DEPTOR / Fold change vs veh, DEPTOR / RFU, CPM / Fold change vs veh, CPM / RFU, DNAJB6 / Fold change vs veh, DNAJB6 / RFU, CACNA2D3 / Fold change vs veh, CACNA2D3 / RFU, DTX4 / Fold change vs veh, DTX4 / RFU, TFCP2 / Fold change vs veh, TFCP2 / RFU, GMCL1 /// GMCL1P1 / Fold change vs veh, GMCL1 /// GMCL1P1 / RFU, AEBP2 / Fold change vs veh, AEBP2 / RFU, SNHG1 /// SNORD22 /// SNORD25 /// SNORD26 /// SNORD27 /// SNORD28 /// SNORD29 /// SNORD31 / Fold change vs veh, SNHG1 /// SNORD22 /// SNORD25 /// SNORD26 /// SNORD27 /// SNORD28 /// SNORD29 /// SNORD31 / Fold change (Aza/veh), C12orf56 (ProbeSet 11735607_a_at) / Fold change (ACY-1035/veh), C12orf56 (ProbeSet 11735607_a_at) / Fold change (Aza/veh), FGFR1OP (ProbeSet 11751329_s_at) / Fold change (ACY-1035/veh), FGFR1OP (ProbeSet 11751329_s_at) / Fold change (Aza/veh), VPS36 (ProbeSet 11739960_a_at) / Fold change (ACY-1035/veh), VPS36 (ProbeSet 11739960_a_at) / RFU SYPL1 (11715823_x_at) / Fold change /veh SYPL1 (11715823_x_at) / RFU IGFBP7 (11715501_s_at) / Fold change /veh IGFBP7 (11715501_s_at) / RFU REEP3 (11722064_at) / Fold change /veh REEP3 (11722064_at) / RFU IGLL1 (11728026_x_at) / Fold change /veh IGLL1 (11728026_x_at): dose or concentration left out as unconfirmed. It is filed as cell-based, human.

As for `Nc1ccc(-c2cccs2)cc1NC(=O)c1ccc2c(c1)cc(C1CC1)n2CCN1CCOCC1` [ACY-1035], the “RFU CNN1 (11734310_a_at)” value stood at 26.40 RFU.
